According to US9169260B2 (MERCK SHARP & DOHME CORP., priority 2011, dated 2015):

Biological target: GST tagged IRAK-4 (Homo sapiens (Human), UniProt Q9NWZ3)
Assay: IRAK-4 Kinase Assay (IMAP fluorescence polarization)
Type: biochemical
Conditions: 100 μM ATP, 30 minutes at 25° C.
How it was run: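 Activity was read by IMAP fluorescence polarization, where phosphopeptide binding to M(III) nanoparticles raises FP. The 30-minute, 25° C reaction used 100 μM ATP, 100 nM RP7030 substrate and 0.5 nM GST-IRAK-4 in pH 7.2 Tris buffer with MgCl2, DTT and Tween 20.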

Sequence of GST tagged IRAK-4 (Q9NWZ3 whole entry): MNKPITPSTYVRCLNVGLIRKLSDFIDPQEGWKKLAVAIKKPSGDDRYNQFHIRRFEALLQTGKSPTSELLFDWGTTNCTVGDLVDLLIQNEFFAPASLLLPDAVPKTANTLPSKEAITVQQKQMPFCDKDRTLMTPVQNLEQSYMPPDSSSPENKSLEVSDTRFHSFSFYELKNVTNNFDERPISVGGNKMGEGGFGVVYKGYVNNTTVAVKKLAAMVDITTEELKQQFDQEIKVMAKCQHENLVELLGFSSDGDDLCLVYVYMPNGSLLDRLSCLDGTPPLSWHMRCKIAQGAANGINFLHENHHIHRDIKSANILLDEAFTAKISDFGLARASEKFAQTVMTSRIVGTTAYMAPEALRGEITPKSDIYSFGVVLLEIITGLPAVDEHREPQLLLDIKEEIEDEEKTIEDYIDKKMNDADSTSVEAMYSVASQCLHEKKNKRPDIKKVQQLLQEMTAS

In the case of Cc1ccc(-n2nc(C3CCN(S(=O)(=O)c4cccc5ccccc45)CC3)cc2NC(=O)c2cnn3cccnc23)cc1 [Example 357, N-{1-(4-methylphenyl)-3-[1-(naphthalen-1-ylsulfonyl)piperidin-4-yl]-1H-pyrazol-5-yl}pyrazolo[1,5-a]pyrimidine-3-carboxamide], the IC50 (μM) is reported as under 1 µM.

Cc1ccc(-n2nc(-c3ccnn3C)cc2NC(=O)c2cnn3cccnc23)cc1 [Example 331, N-[2′-methyl-1-(4-methylphenyl)-1H,2′H-3,3′-bipyrazol-5-yl]pyrazolo[1,5-a]pyrimidine-3-carboxamide] showed an IC50 (μM) of under 1 µM.

Cc1ccc(-n2nc(C3CCN(S(=O)(=O)c4ccc(F)cc4)CC3)cc2NC(=O)c2cnn3cccnc23)cc1 [Example 366, N-[3-{1[(4-fluorophenyl)sulfonyl]piperidin-4-yl}-1-(4-methylphenyl)-1H-pyrazol-5-yl]pyrazolo[1,5-a]pyrimidine-3-carboxamide] showed an IC50 (μM) of under 1 µM.

Work on CN1CCC(c2cc(NC(=O)c3cnn4cccnc34)n(-c3ccc(F)cc3F)n2)CC1 [Example 48, N-(1-(2,4-difluorophenyl)-3-(1-methylpiperidin-4-yl)-1H-pyrazol-5-yl)pyrazolo[1,5-a]pyrimidine-3-carboxamide] yielded an IC50 (μM) of under 1 µM.

Work on CN1CCN(c2cc(NC(=O)c3cnn4cccnc34)n(-c3ccc(C4CC4)cn3)n2)CC1 [Example 201, N-(1-(5-cyclopropylpyridin-2-yl)-3-(4-methylpiperazin-1-yl)-1H-pyrazol-5-yl)pyrazolo[1,5-a]pyrimidine-3-carboxamide] yielded an IC50 of under 0.1 µM.

Work on CNS(=O)(=O)c1ccc(-c2cc(NC(=O)c3cnn4cccnc34)n(-c3ccc(C4CC4)cc3F)n2)cc1 [Example 101, N-(1-(4-cyclopropyl-2-fluorophenyl)-3-(4-(N-methylsulfamoyl)phenyl)-1H-pyrazol-5-yl)pyrazolo[1,5-a]pyrimidine-3-carboxamide] yielded an IC50 of under 0.1 µM.

For Cc1ccc(-n2nc(C3CCN(S(=O)(=O)c4c(Cl)cccc4Cl)CC3)cc2NC(=O)c2cnn3cccnc23)cc1 [Example 390, N-[3-{1-[(2,6-dichlorophenyl)sulfonyl]piperidin-4-yl}-1-(4-methylphenyl)-1H-pyrazol-5-yl]pyrazolo[1,5-a]pyrimidine-3-carboxamide], the IC50 (μM) was over 1 µM.

O=C(Nc1cc(C2CCNCC2)nn1-c1ccc(C2CC2)cc1)c1cnn2cccnc12 [Example 52, N-(1-(4-cyclopropylphenyl)-3-(piperidin-4-yl)-1H-pyrazol-5-yl)pyrazolo[1,5-a]pyrimidine-3-carboxamide] gave an IC50 of under 0.1 µM.

For Cc1ccc(-n2nc(-c3ccc(CN4CCN(C)CC4)cc3)cc2NC(=O)c2cnn3cccnc23)cc1 [Example 144], the IC50 was under 0.1 µM.

Cc1ccc(-n2nc(C3CCN(S(=O)(=O)c4ccccc4C#N)CC3)cc2NC(=O)c2cnn3cccnc23)cc1 [Example 362, N-[3-{1-[(2-cyanophenyl)sulfonyl]piperidin-4-yl}-1-(4-methylphenyl)-1H-pyrazol-5-yl]pyrazolo[1,5-a]pyrimidine-3-carboxamide] was tested, and the IC50 (μM) was under 1 µM.

CC(=O)c1ccc(-n2nc(C3CCN(S(C)(=O)=O)CC3)cc2NC(=O)c2cnn3cccnc23)cc1 [Example 90, N-(1-(4-acetylphenyl)-3-(1-(methylsulfonyl)piperidin-4-yl)-1H-pyrazol-5-yl)pyrazolo[1,5-a]pyrimidine-3-carboxamide] gave an IC50 (μM) of under 1 µM.

For CS(=O)(=O)N1CCC(c2cc(NC(=O)c3cnn4cccnc34)n(-c3ccccn3)n2)CC1 [Example 173, N-(3-(1-(methylsulfonyl)piperidin-4-yl)-1-(pyridin-2-yl)-1H-pyrazol-5-yl)pyrazolo[1,5-a]pyrimidine-3-carboxamide], the IC50 (μM) was under 1 µM.

In the case of Cc1ccc(-n2nc(C3CCCN(CC4CC4)C3)cc2NC(=O)c2cnn3cccnc23)cc1 (centres unmarked) [Example 297, N-{3-[1-(cyclopropylmethyl)piperidin-3-yl]-1-(4-methylphenyl)-1H-pyrazol-5-yl}pyrazolo[1,5-a]pyrimidine-3-carboxamide], the IC50 (μM) is reported as under 1 µM.

Work on Cc1ccc(-n2nc(C3CCCN(Cc4nccs4)C3)cc2NC(=O)c2cnn3cccnc23)cc1 (centres unmarked) [Example 298, N-{1-(4-methylphenyl)-3-[1-(1,3-thiazol-2-ylmethyl)piperidin-3-yl]-1H-pyrazol-5-yl}pyrazolo[1,5-a]pyrimidine-3-carboxamide] yielded an IC50 (μM) of under 1 µM.

Compound Cc1ccc(-n2nc(C3CCN(S(=O)(=O)Cc4ccccc4)CC3)cc2NC(=O)c2cnn3cccnc23)cc1 [Example 387, N-{3-[1-(benzylsulfonyl)piperidin-4-yl]-1-(4-methylphenyl)-1H-pyrazol-5-yl}pyrazolo[1,5-a]pyrimidine-3-carboxamide] has an IC50 (μM) of under 1 µM.

Cc1ccc(-n2nc(-c3ccc(S(C)(=O)=O)cc3C(F)(F)F)cc2NC(=O)c2cnn3cccnc23)cc1 [Example 338, N-{1-(4-methylphenyl)-3-[4-(methylsulfonyl)-2-(trifluoromethyl)phenyl]-1H-pyrazol-5-yl}pyrazolo[1,5-a]pyrimidine-3-carboxamide] showed an IC50 of 0.1 µM.

With Cc1ccc(-n2nc(N3CCN(C4CCCCCC4)CC3)cc2NC(=O)c2cnn3cccnc23)nc1 [Example 322, N-[3-(4-cycloheptylpiperazin-1-yl)-1-(5-methylpyridin-2-yl)-1H-pyrazol-5-yl]pyrazolo[1,5-a]pyrimidine-3-carboxamide] the IC50 was under 0.1 µM.

COc1cccc(S(=O)(=O)N2CCC(c3cc(NC(=O)c4cnn5cccnc45)n(-c4ccc(C)cc4)n3)CC2)c1 [Example 385, N-[3-{1-[(3-methoxyphenyl)sulfonyl]piperidin-4-yl}-1-(4-methylphenyl)-1H-pyrazol-5-yl]pyrazolo[1,5-a]pyrimidine-3-carboxamide] gave an IC50 (μM) of over 1 µM.

CS(=O)(=O)N1CCC(c2cc(NC(=O)c3cnn4cccnc34)n(-c3ccc(C4CC4)cc3)n2)CC1 [Example 53, N-(1-(4-cyclopropylphenyl)-3-(1-(methylsulfonyl)piperidin-4-yl)-1H-pyrazol-5-yl)pyrazolo[1,5-a]pyrimidine-3-carboxamide] was tested, and the IC50 was under 0.1 µM.

For Cc1ccc(-n2nc(-c3cncc(CO)c3)cc2NC(=O)c2cnn3cccnc23)cc1 [Example 332, N-{3-[5-(hydroxymethyl)pyridin-3-yl]-1-(4-methylphenyl)-1H-pyrazol-5-yl}pyrazolo[1,5-a]pyrimidine-3-carboxamide], the IC50 (μM) was under 1 µM.

With Cc1ccc(-n2nc(C3CCN(C4CCc5ccncc5C4)CC3)cc2NC(=O)c2cnn3cccnc23)nc1 (centres unmarked) [Example 268, N-{1-(5-methylpyridin-2-yl)-3-[1-(5,6,7,8-tetrahydroisoquinolin-7-yl)piperidin-4-yl]-1H-pyrazol-5-yl}pyrazolo[1,5-a]pyrimidine-3-carboxamide] the IC50 was under 0.1 µM.

Cc1ccc(-n2nc(C3CCN(Cc4cccnc4)CC3)cc2NC(=O)c2cnn3cccnc23)cc1 [Example 225, N-{1-(4-methylphenyl)-3-[1-(pyridin-3-ylmethyl)piperidin-4-yl]-1H-pyrazol-5-yl}pyrazolo[1,5-a]pyrimidine-3-carboxamide] gave an IC50 (μM) of under 1 µM.

Work on Cc1ccc(-n2nc(C3CCN(Cc4cscn4)CC3)cc2NC(=O)c2cnn3cccnc23)cc1 [Example 231, N-{1-(4-methylphenyl)-3-[1-(1,3-thiazol-4-ylmethyl)piperidin-4-yl]-1H-pyrazol-5-yl}pyrazolo[1,5-a]pyrimidine-3-carboxamide] yielded an IC50 of under 0.1 µM.

In the case of Cc1ccc(-n2nc(-c3cncc(F)c3)cc2NC(=O)c2cnn3cccnc23)cc1 [Example 136, N-(3-(5-fluoropyridin-3-yl)-1-(p-tolyl)-1H-pyrazol-5-yl)pyrazolo[1,5-a]pyrimidine-3-carboxamide], the IC50 (μM) is reported as over 1 µM.

With Cc1ccc(-n2nc(C3CCN(C(C)C)CC3)cc2NC(=O)c2cnn3cc(Br)cnc23)cc1 [Example 108, 6-bromo-N-(3-(1-isopropylpiperidin-4-yl)-1-(p-tolyl)-1H-pyrazol-5-yl)pyrazolo[1,5-a]pyrimidine-3-carboxamide] the IC50 was under 0.1 µM.

Work on O=C(Nc1cc(C2CCN(S(=O)(=O)C3CC3)CC2)nn1-c1ccc(C2CC2)cn1)c1cnn2cccnc12 [Example 150, N-(1-(5-cyclopropylpyridin-2-yl)-3-(1-(cyclopropylsulfonyl)piperidin-4-yl)-1H-pyrazol-5-yl)pyrazolo[1,5-a]pyrimidine-3-carboxamide] yielded an IC50 (μM) of under 1 µM.

Cc1ccc(-n2nc(C3CCN(C4CN(S(=O)(=O)C5CC5)C4)CC3)cc2NC(=O)c2cnn3cccnc23)cc1 [Example 245, N-[3-{1-[1-(cyclopropylsulfonyl)azetidin-3-yl]piperidin-4-yl]-1-(4-methylphenyl)-1H-pyrazol-5-yl}pyrazolo[1,5-a]pyrimidine-3-carboxamide] was tested, and the IC50 (μM) was under 1 µM.

Compound O=C(Nc1cc(C2CCN(C3CCC3)CC2)nn1-c1ccc(C2CC2)cc1F)c1cnn2cccnc12 [Example 75, N-(3-(1-cyclobutylpiperidin-4-yl)-1-(4-cyclopropyl-2-fluorophenyl)-1H-pyrazol-5-yl)pyrazolo[1,5-a]pyrimidine-3-carboxamide] has an IC50 of under 0.1 µM.

In the case of Cc1ccc(-n2nc(C3CCC(N)CC3)cc2NC(=O)c2cnn3cccnc23)nc1 (centres unmarked) [Example 185, N-(3-(4-aminocyclohexyl)-1-(5-methylpyridin-2-yl)-1H-pyrazol-5-yl)pyrazolo[1,5-a]pyrimidine-3-carboxamide], the IC50 is reported as under 0.1 µM.

With COc1ccc(-n2nc(C3CCNCC3)cc2NC(=O)c2cnn3cc(C(N)=O)cnc23)cc1 [Example 105, N3-(1-(4-methoxyphenyl)-3-(piperidin-4-yl)-1H-pyrazol-5-yl)pyrazolo[1,5-a]pyrimidine-3,6-dicarboxamide] the IC50 was under 0.1 µM.

Work on CCN(CC)S(=O)(=O)c1ccc(-c2cc(NC(=O)c3cnn4cccnc34)n(-c3ccc(C)cc3)n2)cc1 [Example 343, N-{3-[4-(diethylsulfamoyl)phenyl]-1-(4-methylphenyl)-1H-pyrazol-5-yl}pyrazolo[1,5-a]pyrimidine-3-carboxamide] yielded an IC50 of under 0.1 µM.

For Cc1ccc(-n2nc(-c3ccc(F)cc3)cc2NC(=O)c2cnn3cccnc23)cc1 [Example 135, N-(3-(4-fluorophenyl)-1-(p-tolyl)-1H-pyrazol-5-yl)pyrazolo[1,5-a]pyrimidine-3-carboxamide], the IC50 (μM) was over 1 µM.
